Results reported in article PMC3969223, “Characterization of WZ4003 and HTH-01-015 as selective inhibitors of the LKB1-tumour-suppressor-activated NUAK kinases” (Biochemical Journal, 2013).

Legend:
Experiment in all cases: Kinase profiling
Type in all cases: biochemical
[1] = biological target: PAK6 (Homo sapiens, UniProt Q9NQU5); details: 0.1 or 1 μM inhibitor; mean of triplicate
Outline: (§1)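 Read-out: % residual kinase activity vs DMSO control; mean of triplicates ±S.D. Inhibitor tested at 0.1 or 1 μM in vitro across a 140-kinase panel.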

[2] = biological target: SIK2 (Homo sapiens, UniProt Q9H0K1); details: 0.1 or 1 μM inhibitor; mean of triplicate
Outline: as §1

[3] = biological target: EPH-B2 (Homo sapiens, UniProt P29323); details: 0.1 or 1 μM inhibitor; mean of triplicate
Outline: as §1

[4] = biological target: NEK6 (Homo sapiens, UniProt Q9HC98); details: 0.1 or 1 μM inhibitor; mean of triplicate
Outline: as §1

[5] = biological target: ROCK 2 (Homo sapiens, UniProt O75116); details: 0.1 or 1 μM inhibitor; mean of triplicate
Outline: as §1

[6] = biological target: MKK2 (Homo sapiens, UniProt P36507); details: 0.1 or 1 μM inhibitor; mean of triplicate
Outline: as §1

[7] = biological target: MST4 (Homo sapiens, UniProt Q9P289); details: 0.1 or 1 μM inhibitor; mean of triplicate
Outline: as §1

[8] = biological target: CK2 (Homo sapiens, UniProt P68400); details: 0.1 or 1 μM inhibitor; mean of triplicate
Chain of CK2 (P68400 whole entry): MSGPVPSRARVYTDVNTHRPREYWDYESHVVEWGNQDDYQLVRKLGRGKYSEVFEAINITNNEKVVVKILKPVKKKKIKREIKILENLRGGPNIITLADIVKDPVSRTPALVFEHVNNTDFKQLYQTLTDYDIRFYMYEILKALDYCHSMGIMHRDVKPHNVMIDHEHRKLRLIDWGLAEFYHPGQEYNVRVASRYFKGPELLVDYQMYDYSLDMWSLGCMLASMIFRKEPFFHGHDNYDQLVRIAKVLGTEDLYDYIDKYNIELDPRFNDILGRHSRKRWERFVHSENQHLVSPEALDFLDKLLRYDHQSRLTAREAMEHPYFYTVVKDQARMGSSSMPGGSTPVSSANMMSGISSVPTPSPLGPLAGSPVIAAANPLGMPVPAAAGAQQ

[9] = biological target: TLK1 (Homo sapiens, UniProt Q9UKI8); details: 0.1 or 1 μM inhibitor; mean of triplicate
Outline: as §1

[10] = biological target: Src (Homo sapiens, UniProt P12931); details: 0.1 or 1 μM inhibitor; mean of triplicate
Outline: as §1

[11] = biological target: EIF2AK3 (Homo sapiens, UniProt Q9NZJ5); details: 0.1 or 1 μM inhibitor; mean of triplicate
Chain of EIF2AK3 (Q9NZJ5 30-1116): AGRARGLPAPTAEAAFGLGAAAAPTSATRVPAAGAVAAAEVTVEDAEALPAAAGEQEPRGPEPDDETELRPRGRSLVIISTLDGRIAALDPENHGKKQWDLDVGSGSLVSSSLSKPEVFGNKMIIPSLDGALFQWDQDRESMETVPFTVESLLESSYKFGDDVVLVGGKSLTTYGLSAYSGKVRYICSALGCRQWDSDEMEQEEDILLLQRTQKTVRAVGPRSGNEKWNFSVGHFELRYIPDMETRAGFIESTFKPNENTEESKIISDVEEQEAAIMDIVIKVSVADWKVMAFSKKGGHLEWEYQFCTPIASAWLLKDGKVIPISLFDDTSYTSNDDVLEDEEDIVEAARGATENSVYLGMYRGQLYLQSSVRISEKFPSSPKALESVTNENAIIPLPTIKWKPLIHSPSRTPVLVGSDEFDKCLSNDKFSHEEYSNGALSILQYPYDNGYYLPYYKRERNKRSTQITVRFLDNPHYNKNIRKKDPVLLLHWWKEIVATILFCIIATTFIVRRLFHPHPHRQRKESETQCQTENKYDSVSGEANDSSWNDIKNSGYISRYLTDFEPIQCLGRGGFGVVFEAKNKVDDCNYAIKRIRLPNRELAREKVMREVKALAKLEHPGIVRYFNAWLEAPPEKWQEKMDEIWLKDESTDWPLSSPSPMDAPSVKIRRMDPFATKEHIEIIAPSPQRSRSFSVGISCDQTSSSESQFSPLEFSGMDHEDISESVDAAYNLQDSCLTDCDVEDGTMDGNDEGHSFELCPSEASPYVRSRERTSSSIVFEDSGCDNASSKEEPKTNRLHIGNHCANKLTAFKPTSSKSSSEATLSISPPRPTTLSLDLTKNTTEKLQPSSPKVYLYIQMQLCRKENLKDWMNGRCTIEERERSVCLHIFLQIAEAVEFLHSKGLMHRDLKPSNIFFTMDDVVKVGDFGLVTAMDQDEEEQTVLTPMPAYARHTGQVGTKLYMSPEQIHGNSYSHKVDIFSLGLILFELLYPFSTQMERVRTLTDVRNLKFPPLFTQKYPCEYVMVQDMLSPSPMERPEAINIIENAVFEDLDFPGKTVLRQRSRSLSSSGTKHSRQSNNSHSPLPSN
Outline: as §1

[12] = biological target: PAK2 (Homo sapiens, UniProt Q13177); details: 0.1 or 1 μM inhibitor; mean of triplicate
Outline: as §1

[13] = biological target: CSK (Homo sapiens, UniProt P41240); details: 0.1 or 1 μM inhibitor; mean of triplicate
Chain of CSK (P41240 whole entry): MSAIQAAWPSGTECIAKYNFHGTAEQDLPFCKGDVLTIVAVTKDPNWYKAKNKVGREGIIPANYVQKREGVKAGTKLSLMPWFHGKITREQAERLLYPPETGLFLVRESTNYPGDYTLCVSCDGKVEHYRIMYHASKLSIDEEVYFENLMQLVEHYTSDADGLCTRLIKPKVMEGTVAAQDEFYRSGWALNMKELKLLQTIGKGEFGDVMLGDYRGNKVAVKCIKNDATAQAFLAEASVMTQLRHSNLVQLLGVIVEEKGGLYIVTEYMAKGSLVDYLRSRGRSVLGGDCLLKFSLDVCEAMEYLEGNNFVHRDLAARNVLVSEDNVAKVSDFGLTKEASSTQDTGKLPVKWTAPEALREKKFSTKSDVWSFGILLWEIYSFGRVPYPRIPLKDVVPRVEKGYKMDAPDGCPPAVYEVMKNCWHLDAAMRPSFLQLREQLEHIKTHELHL
Outline: as §1

[14] = biological target: DYRK1A (Homo sapiens, UniProt Q13627); details: 0.1 or 1 μM inhibitor; mean of triplicate
[15] = biological target: CHK2 (Homo sapiens, UniProt O96017); details: 0.1 or 1 μM inhibitor; mean of triplicate
Outline: as §1

[16] = biological target: MAP4K3 (Homo sapiens, UniProt Q8IVH8); details: 0.1 or 1 μM inhibitor; mean of triplicate
Outline: as §1

[17] = biological target: CAMKKβ (Homo sapiens, UniProt Q96RR4); details: 0.1 or 1 μM inhibitor; mean of triplicate
Outline: as §1

[18] = biological target: PKBβ (Homo sapiens, UniProt P31751); details: 0.1 or 1 μM inhibitor; mean of triplicate
Outline: as §1

[19] = biological target: PIM2 (Homo sapiens, UniProt Q9P1W9); details: 0.1 or 1 μM inhibitor; mean of triplicate
Outline: as §1

[20] = biological target: MAPKAP-K3 (Homo sapiens, UniProt Q16644); details: 0.1 or 1 μM inhibitor; mean of triplicate
Chain of MAPKAP-K3 (Q16644 whole entry): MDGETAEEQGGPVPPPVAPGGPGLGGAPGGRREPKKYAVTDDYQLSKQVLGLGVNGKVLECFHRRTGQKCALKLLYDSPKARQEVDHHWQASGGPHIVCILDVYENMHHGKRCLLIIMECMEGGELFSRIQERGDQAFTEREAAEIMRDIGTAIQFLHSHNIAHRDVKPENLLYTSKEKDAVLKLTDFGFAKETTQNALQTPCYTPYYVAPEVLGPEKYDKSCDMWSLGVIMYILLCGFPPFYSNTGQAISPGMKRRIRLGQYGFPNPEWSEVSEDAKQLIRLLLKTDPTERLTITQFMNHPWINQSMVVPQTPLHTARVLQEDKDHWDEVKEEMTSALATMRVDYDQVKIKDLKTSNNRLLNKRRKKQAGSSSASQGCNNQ
Outline: as §1

[21] = biological target: TTBK1 (Homo sapiens, UniProt Q5TCY1); details: 0.1 or 1 μM inhibitor; mean of triplicate
Outline: as §1

[22] = biological target: EPH-B1 (Homo sapiens, UniProt P54762); details: 0.1 or 1 μM inhibitor; mean of triplicate
Outline: as §1

[23] = biological target: IRAK4 (Homo sapiens, UniProt Q9NWZ3); details: 0.1 or 1 μM inhibitor; mean of triplicate
Outline: as §1

[24] = biological target: MPSK1 (Homo sapiens, UniProt O75716); details: 0.1 or 1 μM inhibitor; mean of triplicate
Outline: as §1

[25] = biological target: TAO1 (Homo sapiens, UniProt Q7L7X3); details: 0.1 or 1 μM inhibitor; mean of triplicate
Outline: as §1

[26] = biological target: MKK1 (Homo sapiens, UniProt Q02750); details: 0.1 or 1 μM inhibitor; mean of triplicate
Outline: as §1

[27] = biological target: PKCζ (Homo sapiens, UniProt Q05513); details: 0.1 or 1 μM inhibitor; mean of triplicate
Outline: as §1

[28] = biological target: TGFBR1 (Homo sapiens, UniProt P36897); details: 0.1 or 1 μM inhibitor; mean of triplicate
Outline: as §1

[29] = biological target: RIPK2 (Homo sapiens, UniProt O43353); details: 0.1 or 1 μM inhibitor; mean of triplicate
Outline: as §1

[30] = biological target: MAP4K5 (Homo sapiens, UniProt Q9Y4K4); details: 0.1 or 1 μM inhibitor; mean of triplicate
Outline: as §1

[31] = biological target: BTK (Homo sapiens, UniProt Q06187); details: 0.1 or 1 μM inhibitor; mean of triplicate
Outline: as §1

[32] = biological target: MLK1 (Homo sapiens, UniProt P80192); details: 0.1 or 1 μM inhibitor; mean of triplicate
Chain of MLK1 (P80192 whole entry): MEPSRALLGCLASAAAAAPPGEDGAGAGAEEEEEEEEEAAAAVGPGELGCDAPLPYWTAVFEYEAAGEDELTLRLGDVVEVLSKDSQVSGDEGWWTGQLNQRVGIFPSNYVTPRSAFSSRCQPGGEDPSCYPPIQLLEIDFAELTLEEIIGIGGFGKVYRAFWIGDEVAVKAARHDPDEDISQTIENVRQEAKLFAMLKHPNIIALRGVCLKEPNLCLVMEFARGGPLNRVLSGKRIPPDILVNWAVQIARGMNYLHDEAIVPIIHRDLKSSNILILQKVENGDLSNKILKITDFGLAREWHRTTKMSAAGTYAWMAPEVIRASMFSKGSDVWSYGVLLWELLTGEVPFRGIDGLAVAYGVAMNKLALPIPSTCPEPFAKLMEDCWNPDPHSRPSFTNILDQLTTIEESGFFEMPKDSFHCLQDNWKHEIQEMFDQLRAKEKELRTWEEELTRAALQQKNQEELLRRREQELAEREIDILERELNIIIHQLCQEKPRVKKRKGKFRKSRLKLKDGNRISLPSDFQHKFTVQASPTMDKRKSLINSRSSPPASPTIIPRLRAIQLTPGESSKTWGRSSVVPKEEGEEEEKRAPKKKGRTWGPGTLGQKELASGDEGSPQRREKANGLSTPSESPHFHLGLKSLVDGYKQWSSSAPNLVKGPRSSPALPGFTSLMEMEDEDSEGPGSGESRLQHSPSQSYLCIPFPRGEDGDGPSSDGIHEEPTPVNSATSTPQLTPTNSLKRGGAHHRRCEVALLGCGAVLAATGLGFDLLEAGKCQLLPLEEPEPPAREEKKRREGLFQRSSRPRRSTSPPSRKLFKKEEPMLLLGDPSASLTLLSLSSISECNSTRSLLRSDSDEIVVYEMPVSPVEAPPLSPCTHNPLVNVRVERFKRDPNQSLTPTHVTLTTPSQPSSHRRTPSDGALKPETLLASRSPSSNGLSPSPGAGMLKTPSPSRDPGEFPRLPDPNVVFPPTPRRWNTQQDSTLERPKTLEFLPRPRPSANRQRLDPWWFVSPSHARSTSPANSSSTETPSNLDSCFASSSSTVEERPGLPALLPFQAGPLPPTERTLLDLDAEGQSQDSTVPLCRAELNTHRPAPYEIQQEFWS
Outline: as §1

[33] = biological target: PRAK (Homo sapiens, UniProt Q8IW41); details: 0.1 or 1 μM inhibitor; mean of triplicate
Outline: as §1

[34] = biological target: p38β MAPK (Homo sapiens, UniProt Q15759); details: 0.1 or 1 μM inhibitor; mean of triplicate
Outline: as §1

[35] = biological target: GSK3β (Homo sapiens, UniProt P49841); details: 0.1 or 1 μM inhibitor; mean of triplicate
[36] = biological target: RSK2 (Homo sapiens, UniProt P51812); details: 0.1 or 1 μM inhibitor; mean of triplicate
Chain of RSK2 (P51812 whole entry): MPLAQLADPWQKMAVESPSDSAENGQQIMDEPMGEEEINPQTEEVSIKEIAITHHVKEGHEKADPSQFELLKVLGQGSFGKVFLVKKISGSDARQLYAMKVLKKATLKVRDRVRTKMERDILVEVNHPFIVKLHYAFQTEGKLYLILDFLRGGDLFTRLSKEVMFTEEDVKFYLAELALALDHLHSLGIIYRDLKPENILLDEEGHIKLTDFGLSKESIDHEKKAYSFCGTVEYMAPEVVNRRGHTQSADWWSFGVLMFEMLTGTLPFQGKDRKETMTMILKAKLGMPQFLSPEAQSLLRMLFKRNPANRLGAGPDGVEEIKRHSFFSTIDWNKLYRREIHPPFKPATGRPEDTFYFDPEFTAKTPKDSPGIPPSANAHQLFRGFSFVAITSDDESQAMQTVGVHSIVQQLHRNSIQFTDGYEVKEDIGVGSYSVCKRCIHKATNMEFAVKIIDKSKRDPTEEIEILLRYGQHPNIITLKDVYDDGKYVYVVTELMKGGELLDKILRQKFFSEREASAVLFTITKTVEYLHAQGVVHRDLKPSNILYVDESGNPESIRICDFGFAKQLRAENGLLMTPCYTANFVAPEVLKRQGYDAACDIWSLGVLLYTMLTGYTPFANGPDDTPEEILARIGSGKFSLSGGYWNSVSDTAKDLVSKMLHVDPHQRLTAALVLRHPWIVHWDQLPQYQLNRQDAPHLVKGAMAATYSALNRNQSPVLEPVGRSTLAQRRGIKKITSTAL
Outline: as §1

[37] = biological target: MEKK1 (Homo sapiens, UniProt Q13233); details: 0.1 or 1 μM inhibitor; mean of triplicate
Outline: as §1

[38] = biological target: ASK1 (Homo sapiens, UniProt Q99683); details: 0.1 or 1 μM inhibitor; mean of triplicate
Outline: as §1

[39] = biological target: MNK1 (Homo sapiens, UniProt Q9BUB5); details: 0.1 or 1 μM inhibitor; mean of triplicate
Outline: as §1

[40] = biological target: HIPK1 (Homo sapiens, UniProt Q86Z02); details: 0.1 or 1 μM inhibitor; mean of triplicate
Outline: as §1

[41] = biological target: HIPK3 (Homo sapiens, UniProt Q9H422); details: 0.1 or 1 μM inhibitor; mean of triplicate
Outline: as §1

[42] = biological target: ERK2 (Homo sapiens, UniProt P28482); details: 0.1 or 1 μM inhibitor; mean of triplicate
Outline: as §1

[43] = tested on: AMPK
Outline: as §1

Chain of PAK6 (Q9NQU5 whole entry): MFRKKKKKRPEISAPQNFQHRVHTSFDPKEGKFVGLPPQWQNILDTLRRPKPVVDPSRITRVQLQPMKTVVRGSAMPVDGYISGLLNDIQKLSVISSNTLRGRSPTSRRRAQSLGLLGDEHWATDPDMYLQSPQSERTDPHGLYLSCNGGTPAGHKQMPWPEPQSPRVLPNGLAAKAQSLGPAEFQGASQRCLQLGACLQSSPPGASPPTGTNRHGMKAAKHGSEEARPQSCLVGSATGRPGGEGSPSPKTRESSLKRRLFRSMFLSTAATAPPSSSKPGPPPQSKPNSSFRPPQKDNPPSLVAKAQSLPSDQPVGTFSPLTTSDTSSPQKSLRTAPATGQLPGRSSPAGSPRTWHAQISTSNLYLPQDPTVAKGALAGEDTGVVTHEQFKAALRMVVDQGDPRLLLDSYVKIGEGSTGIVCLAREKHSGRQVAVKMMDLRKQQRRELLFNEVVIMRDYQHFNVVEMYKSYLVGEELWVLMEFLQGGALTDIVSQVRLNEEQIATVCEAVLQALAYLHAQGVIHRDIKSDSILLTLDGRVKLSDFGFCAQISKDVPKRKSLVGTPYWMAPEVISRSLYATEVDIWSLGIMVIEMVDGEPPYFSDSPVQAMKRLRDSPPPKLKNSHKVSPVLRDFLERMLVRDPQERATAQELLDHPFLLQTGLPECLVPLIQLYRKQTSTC

With `CCC(=O)Nc1cccc(Oc2nc(Nc3ccc(N4CCN(C)CC4)cc3OC)ncc2Cl)c1` [WZ4003] the “PAK6 activity, percentage of DMSO control” value [1] was 104 percentage, the “SIK2 activity, percentage of DMSO control” value [2] was 70 percentage and the “EPH-B2 activity, percentage of DMSO control” value [3] was 107 percentage. The “NEK6 activity, percentage of DMSO control” value [4] was 79 percentage, the “ROCK 2 activity, percentage of DMSO control” value [5] was 80 percentage and the “MKK2 activity, percentage of DMSO control” value [6] was 98 percentage. The “MST4 activity, percentage of DMSO control” value [7] was 101 percentage, the “CK2 activity, percentage of DMSO control” value [8] was 76 percentage and the “TLK1 activity, percentage of DMSO control” value [9] was 91 percentage. For the same compound, the “Src activity, percentage of DMSO control” value [10] was 109 percentage, the “EIF2AK3 activity, percentage of DMSO control” value [11] was 76 percentage and the “PAK2 activity, percentage of DMSO control” value [12] was 92 percentage. The “CSK activity, percentage of DMSO control” value [13] was 105 percentage, the “DYRK1A activity, percentage of DMSO control” value [14] was 102 percentage and the “CHK2 activity, percentage of DMSO control” value [15] was 40 percentage. For the same compound, the “MAP4K3 activity, percentage of DMSO control” value [16] was 111 percentage, the “CAMKKβ activity, percentage of DMSO control” value [17] was 44 percentage and the “PKBβ activity, percentage of DMSO control” value [18] was 114 percentage. The “PIM2 activity, percentage of DMSO control” value [19] was 101 percentage, the “MAPKAP-K3 activity, percentage of DMSO control” value [20] was 91 percentage and the “TTBK1 activity, percentage of DMSO control” value [21] was 78 percentage. The “EPH-B1 activity, percentage of DMSO control” value [22] was 98 percentage, the “IRAK4 activity, percentage of DMSO control” value [23] was 92 percentage and the “MPSK1 activity, percentage of DMSO control” value [24] was 107 percentage. The “TAO1 activity, percentage of DMSO control” value [25] was 101 percentage, the “MKK1 activity, percentage of DMSO control” value [26] was 98 percentage and the “PKCζ activity, percentage of DMSO control” value [27] was 86 percentage. For the same compound, the “TGFBR1 activity, percentage of DMSO control” value [28] was 102 percentage, the “RIPK2 activity, percentage of DMSO control” value [29] was 105 percentage and the “MAP4K5 activity, percentage of DMSO control” value [30] was 108 percentage. For the same compound, the “BTK activity, percentage of DMSO control” value [31] was 114 percentage, the “MLK1 activity, percentage of DMSO control” value [32] was 69 percentage and the “PRAK activity, percentage of DMSO control” value [33] was 94 percentage. For the same compound, the “p38β MAPK activity, percentage of DMSO control” value [34] was 104 percentage, the “GSK3β activity, percentage of DMSO control” value [35] was 88 percentage and the “RSK2 activity, percentage of DMSO control” value [36] was 76 percentage. The “MEKK1 activity, percentage of DMSO control” value [37] was 91 percentage, the “ASK1 activity, percentage of DMSO control” value [38] was 107 percentage and the “MNK1 activity, percentage of DMSO control” value [39] was 104 percentage. The “HIPK1 activity, percentage of DMSO control” value [40] was 103 percentage, the “HIPK3 activity, percentage of DMSO control” value [41] was 91 percentage and the “ERK2 activity, percentage of DMSO control” value [42] was 107 percentage.
`CN1C(=O)c2ccccc2N(C)c2nc(Nc3cnn(C4CCNCC4)c3)ncc21` [XMD-17-51] was tested, and the “Inhibition of AMPK in profiling (in words)” value ([43]; 1 μM) was “inhibited”.
`Cc1nc(Nc2cnn(C3CCNCC3)c2)nc2c1N(C)C(=O)c1cc3ccccc3cc1N2C` [HTH-01-015] was tested, and the “PAK6 activity, percentage of DMSO control” value [1] was 95 percentage, the “SIK2 activity, percentage of DMSO control” value [2] was 112 percentage and the “EPH-B2 activity, percentage of DMSO control” value [3] was 97 percentage. The “NEK6 activity, percentage of DMSO control” value [4] was 99 percentage, the “ROCK 2 activity, percentage of DMSO control” value [5] was 110 percentage and the “MKK2 activity, percentage of DMSO control” value [6] was 111 percentage. The “MST4 activity, percentage of DMSO control” value [7] was 119 percentage, the “CK2 activity, percentage of DMSO control” value [8] was 120 percentage and the “TLK1 activity, percentage of DMSO control” value [9] was 106 percentage. For the same compound, the “Src activity, percentage of DMSO control” value [10] was 76 percentage, the “EIF2AK3 activity, percentage of DMSO control” value [11] was 99 percentage and the “PAK2 activity, percentage of DMSO control” value [12] was 125 percentage. For the same compound, the “CSK activity, percentage of DMSO control” value [13] was 103 percentage, the “DYRK1A activity, percentage of DMSO control” value [14] was 89 percentage and the “CHK2 activity, percentage of DMSO control” value [15] was 105 percentage. The “MAP4K3 activity, percentage of DMSO control” value [16] was 127 percentage, the “CAMKKβ activity, percentage of DMSO control” value [17] was 87 percentage and the “PKBβ activity, percentage of DMSO control” value [18] was 104 percentage. For the same compound, the “PIM2 activity, percentage of DMSO control” value [19] was 106 percentage, the “MAPKAP-K3 activity, percentage of DMSO control” value [20] was 96 percentage and the “TTBK1 activity, percentage of DMSO control” value [21] was 124 percentage. The “EPH-B1 activity, percentage of DMSO control” value [22] was 97 percentage, the “IRAK4 activity, percentage of DMSO control” value [23] was 103 percentage and the “MPSK1 activity, percentage of DMSO control” value [24] was 103 percentage. The “TAO1 activity, percentage of DMSO control” value [25] was 123 percentage, the “MKK1 activity, percentage of DMSO control” value [26] was 113 percentage and the “PKCζ activity, percentage of DMSO control” value [27] was 98 percentage. The “TGFBR1 activity, percentage of DMSO control” value [28] was 102 percentage, the “RIPK2 activity, percentage of DMSO control” value [29] was 88 percentage and the “MAP4K5 activity, percentage of DMSO control” value [30] was 106 percentage. For the same compound, the “BTK activity, percentage of DMSO control” value [31] was 109 percentage, the “MLK1 activity, percentage of DMSO control” value [32] was 102 percentage and the “PRAK activity, percentage of DMSO control” value [33] was 105 percentage. For the same compound, the “p38β MAPK activity, percentage of DMSO control” value [34] was 112 percentage, the “GSK3β activity, percentage of DMSO control” value [35] was 119 percentage and the “RSK2 activity, percentage of DMSO control” value [36] was 106 percentage. For the same compound, the “AMPK activity, percentage of DMSO control” value ([43]; 0.1 or 1 μM inhibitor, mean of triplicate) was 127 percentage, the “MEKK1 activity, percentage of DMSO control” value [37] was 110 percentage and the “ASK1 activity, percentage of DMSO control” value [38] was 105 percentage. The “MNK1 activity, percentage of DMSO control” value [39] was 102 percentage, the “HIPK1 activity, percentage of DMSO control” value [40] was 107 percentage and the “HIPK3 activity, percentage of DMSO control” value [41] was 96 percentage. For the same compound, the “ERK2 activity, percentage of DMSO control” value [42] was 125 percentage.
